The results in this text go back to patent publication US20080312292A1, “Antipruritics” (priority 2002, published 2008).

For one data set, the target named is T1, human CB1R (Homo sapiens, UniProt P21554).
T1 construct: expressed in transfected cells; host or cells: CHO cells
The experiment in a line: cell-based. The note with it: CHO cells expressing human CB1R; read-out: cAMP Inhibition: IC50 CB1.

Another data set concerns the target T2, human CB2R (Homo sapiens, UniProt P34972).
T2 construct: expressed in transfected cells; host or cells: CHO cells
The experiment in a line: Cannabinoid receptor-mediated suppression of forskolin-stimulated cAMP synthesis, CB2R. The data set is classed as cell-based. The note with it: CHO cells expressing human CB2R.

The next data set addresses T3, mouse CB1 receptor (Mus musculus, UniProt P47746).
T3 construct: The membrane fractions of mouse brain and spleen that abundantly express CB1 and CB2 receptor, respectively; from tissue; host or cells: mouse brain membrane fraction (C57BL/6 J)
The experiment in a line: Binding inhibitory activity to mouse cannabinoid receptors, brain membrane fraction. Details: species or system C57BL/6 J mice.

A further data set deals with T4, mouse CB2 receptor (Mus musculus, UniProt P47936).
T4 construct: The membrane fractions of mouse brain and spleen that abundantly express CB1 and CB2 receptor, respectively; from tissue; host or cells: mouse spleen membrane fraction (C57BL/6 J)
The experiment in a line: Binding inhibitory activity to mouse cannabinoid receptors, spleen membrane fraction. Details: species or system C57BL/6 J mice.

The test system of data set [1] is compound 48/80-induced pruritus. The experiment in a line: Inhibitory effect on compound 48/80-induced pruritus in ICR strain mice. The note with it: 100 mg/kg (p.o.), ICR mice, compound 48/80-induced scratching.
Data set [2] concerns the target T5, Human cannabinoid receptor CB1R (Homo sapiens, UniProt P21554).
T5 construct: expressed in transfected cells; host or cells: CHO cells
The experiment in a line: Human cannabinoid receptor binding inhibition, [3H]CP55940, CB1R. Conditions: membranes of CB1R-expressing CHO cells, [3H]CP55940 0.5 nM; read-out: Ki CB1 receptor. On the procedure: (§1) The crude membrane fractions as Human cannabinoid receptor were then prepared from the CB1R or CB2R-expressing CHO cells. Receptor binding assay was performed by incubating the membranes with each test compound and 38,000 dpm [^3H]CP55940 (at a final concentration of 0.5 nM: NEN Life Science Products) in the assay buffer (50 mM Tris-HCl; 1 mM EDTA, 3 mM MgCl2, pH 7.4) containing 0.5% bovine serum albumin (BSA) for 2 hr at 25° C. The incubation mixture was filtered through 1% polyethylenimine (PEI)-treated GF/C glass filter and washed with 50 mM Tris-HCl (pH 7.4) containing 0.1% BSA. The radioactivity was then counted with a liquid scintillation counter. […] Ki value of test compound is calculated by obtained IC50 value and Kd value of [^3H]CP55940.

Data set [3] addresses T6, Human cannabinoid receptor CB2R (Homo sapiens, UniProt P34972).
T6 construct: expressed in transfected cells; host or cells: CHO cells
The experiment in a line: Human cannabinoid receptor binding inhibition, [3H]CP55940, CB2R. The note with it: membranes of CB2R-expressing CHO cells, [3H]CP55940 0.5 nM; read-out: Ki CB2 receptor. On the procedure:
as §1

Where [4] appears, read: read-out: cAMP Inhibition: IC50 CB2.
The mark [5] stands for this setting: mouse brain membrane fraction, read-out: Binding Assay: Ki Brain (CB1).
The mark [6] stands for this setting: mouse spleen membrane fraction, read-out: Binding Assay: Ki Spleen (CB2).

Where two headings read alike, the source gives them in different places. Marks after values point to notes of the source that are not given here.

T2 sequence (P34972 whole entry): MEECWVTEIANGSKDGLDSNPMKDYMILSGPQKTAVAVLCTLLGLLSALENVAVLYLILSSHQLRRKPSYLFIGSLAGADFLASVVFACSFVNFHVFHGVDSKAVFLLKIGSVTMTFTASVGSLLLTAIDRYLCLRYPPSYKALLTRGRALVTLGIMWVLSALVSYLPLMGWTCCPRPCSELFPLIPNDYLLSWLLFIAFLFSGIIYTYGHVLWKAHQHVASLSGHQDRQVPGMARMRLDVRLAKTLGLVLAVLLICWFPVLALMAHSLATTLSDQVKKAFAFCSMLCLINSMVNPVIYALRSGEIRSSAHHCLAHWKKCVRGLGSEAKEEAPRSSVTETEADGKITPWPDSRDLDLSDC
T4 sequence (P47936 whole entry): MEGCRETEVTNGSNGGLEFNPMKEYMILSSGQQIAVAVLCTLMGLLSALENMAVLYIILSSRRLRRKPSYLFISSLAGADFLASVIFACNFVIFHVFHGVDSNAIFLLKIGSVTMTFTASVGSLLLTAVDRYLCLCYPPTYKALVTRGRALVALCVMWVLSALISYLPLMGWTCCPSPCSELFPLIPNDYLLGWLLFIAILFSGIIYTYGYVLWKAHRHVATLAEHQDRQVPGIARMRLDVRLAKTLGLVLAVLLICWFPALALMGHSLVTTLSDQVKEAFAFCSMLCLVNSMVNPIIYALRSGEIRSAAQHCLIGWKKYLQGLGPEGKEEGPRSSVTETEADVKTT
T1 sequence (P21554 whole entry): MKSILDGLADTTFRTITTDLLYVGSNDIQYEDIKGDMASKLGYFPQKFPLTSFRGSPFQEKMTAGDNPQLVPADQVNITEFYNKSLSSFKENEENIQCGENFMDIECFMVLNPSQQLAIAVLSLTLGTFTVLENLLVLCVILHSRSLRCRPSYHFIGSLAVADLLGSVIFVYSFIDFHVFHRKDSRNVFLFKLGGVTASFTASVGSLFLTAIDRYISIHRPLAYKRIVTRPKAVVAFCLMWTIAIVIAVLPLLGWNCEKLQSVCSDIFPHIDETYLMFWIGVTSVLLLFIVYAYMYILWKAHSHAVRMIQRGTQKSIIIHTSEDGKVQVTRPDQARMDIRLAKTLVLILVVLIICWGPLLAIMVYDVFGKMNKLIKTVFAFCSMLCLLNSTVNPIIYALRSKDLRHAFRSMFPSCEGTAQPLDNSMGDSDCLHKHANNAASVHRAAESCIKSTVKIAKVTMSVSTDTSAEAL
T3 sequence (P47746 whole entry): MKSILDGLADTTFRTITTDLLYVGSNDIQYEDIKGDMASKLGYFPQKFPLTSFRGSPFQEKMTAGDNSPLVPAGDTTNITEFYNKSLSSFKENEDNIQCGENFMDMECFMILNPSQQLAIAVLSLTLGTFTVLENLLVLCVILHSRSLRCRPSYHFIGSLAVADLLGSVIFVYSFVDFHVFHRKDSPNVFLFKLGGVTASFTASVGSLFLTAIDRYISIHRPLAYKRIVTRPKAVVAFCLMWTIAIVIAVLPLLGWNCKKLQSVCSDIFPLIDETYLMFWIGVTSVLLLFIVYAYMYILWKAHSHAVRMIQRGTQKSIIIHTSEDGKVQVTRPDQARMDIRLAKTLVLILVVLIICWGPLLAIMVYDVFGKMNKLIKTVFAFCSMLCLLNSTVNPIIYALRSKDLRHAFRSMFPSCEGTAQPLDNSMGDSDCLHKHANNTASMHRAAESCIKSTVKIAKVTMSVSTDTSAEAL
T6 sequence (P34972 whole entry): as the sequence (P34972 whole entry) above
T5 sequence (P21554 whole entry): as the sequence (P21554 whole entry) above

One may read the IC50 as the midpoint of a concentration-inhibition curve. For orientation: Ki means a measure of affinity in units of concentration, obtained from inhibition or displacement. As for `CCCCn1c2c(cc(C(=O)NC3CCCCC3)c1=O)CCCCCC2` [Compound 10-035], the IC50 at human CB1R stood at 29 nM; at human CB2R (setting [4]) it was 0.2 nM. Also, the Ki at mouse CB1 receptor (setting [5]) is 12 nM; on mouse CB2 receptor (setting [6]), 0.1 nM. For the same molecule, in data set [1], the “Antipruritic Effect (%)” value is listed as 93** %.

One may read the melting point as the temperature, or range, at which the solid turns liquid. Turning to `C=CCSC(=S)N1CC2(CCCCC2)CSC1=Nc1ccccc1OC` [II-86], the melting point fell in the range of 108.5 to 109.5 °C. The IC50 at human CB1R stood at 16.8 nM. Also, the IC50 at human CB2R (setting [4]) was found to be 1 nM. The molecule further returned a Ki at mouse CB1 receptor of 12 nM. This molecule returned a Ki at mouse CB2 receptor of 1.1 nM. Also, in data set [1], the “Antipruritic Effect (%)” value was 98** %.

Consider `CSC(=S)N1CC2(CCCCC2)CSC1=Nc1ccccc1C(C)C` [Compound I-270], for which the results for the IC50 on human CB1R and at human CB2R (setting [4]) were 68.7 nM and 7.9 nM, respectively. The Ki on mouse CB1 receptor (setting [5]) was found to be 80 nM; on mouse CB2 receptor (setting [6]) it was 1.2 nM. In addition, the “Antipruritic Effect (%)” value in data set [1] was 98** %.

Regarding `CCCCn1c2c(cc(C(=O)NCc3ccccc3)c1=O)CCCCCC2` [Compound 4-101], the Ki in data set [2] is 890 nM; in data set [3], 1.5 nM; at mouse CB1 receptor (setting [5]) it was 35 nM; on mouse CB2 receptor (setting [6]) it was 0.6 nM. For the same molecule, the IC50 on human CB1R was 60.3 nM; at human CB2R (forskolin-stimulated cAMP synthesis, read-out: CB2 receptor IC50), 1.4 nM; at human CB2R (setting [4]), 1.4 nM. Moreover, the “Antipruritic Effect (%)” value in data set [1] was 81** %.
